From paper PMC9950205, “Efficacy, safety, and pharmacokinetics of teduglutide in adult Japanese patients with short bowel syndrome and intestinal failure: two phase III studies with an extension” (Surgery Today, 2022)
Read-outs that look alike come from different tables or passages of the source.

Key:
Type in all cases: in vivo, human
[1] = test system: adult Japanese patients with SBS-IF; assay: Anti-teduglutide antibodies in blood samples
Protocol: (§1) In TED-C14-004 and SHP633-306, blood samples for PK evaluations were taken pre-dose and at 0.25, 0.5, 1, 2, 3, 4, 6, 8, 10, and 12 h post-dose during the first 12 weeks of treatment with teduglutide. In SHP633-307, patients continuing from study TED-C14-004 had blood samples for PK evaluations taken pre-dose and at […], and 1, 2, 3, 4, 6, 8, 10, and 12 h post-dose at the first extension study visit. Patients continuing from SHP633-306 had blood samples taken pre-dose and 1 and 2 h post-dose at the first extension study visit. Blood samples to test for the presence of antibodies to teduglutide were taken at baseline and weeks 12 and 24 in SHP633-306; ≥ 14 h after dosing at baseline and weeks 12 and 24, and then every 6 months thereafter in TED-C14-004; and every 3 months in SHP633-307.
Safety analyses included the monitoring of adverse events (AEs), body weight, BMI, vital signs, 12-lead electrocardiogram (ECG), serum biochemistry, hematology, and presence of antibodies to teduglutide. AEs were coded using the Medical Dictionary for Regulatory Activities versions 17.1 (TED-C14-004) and 21.0 (SHP633-306 and SHP633-307). Specifically, AEs were treatment-emergent AEs (TEAEs), defined as any unfavorable and unintended sign (including any abnormal laboratory finding), symptom, or disease that occurred during treatment with teduglutide, whether or not the event was considered to be related to the study drug by the clinical study investigator. AEs were also categorized as mild, moderate, or severe. […] AEs were considered related to treatment with teduglutide, or its administration, based on the investigator's medical judgment.

[2] = test system: adult Japanese patients with SBS-IF; assay: Parenteral support (PS) requirements in phase III studies TED-C14-004, SHP633-306 and extension SHP633-307, teduglutide 0.05 mg/kg SC once daily; conditions: for Patients with reduction in weekly PS volume of ≥ 20% from baseline at both weeks 20 and 24: 0.05 mg/kg SC once daily; for Patients whose PS volume decreased by ≥ 20%: 0.05 mg/kg/day
Protocol: As in the previous STEPS-1 study, patients participating in the core studies (TED-C14-004 and SHP633-306) underwent an optimization (2–8 weeks) and stabilization (4–8 weeks) period before initiation of treatment with teduglutide, during which PS was adjusted with the goal of achieving a stable target urine output of 1.0–2.0 L/day. All participating patients received teduglutide 0.05 mg/kg SC once daily throughout these three studies. PS was adjusted according to an algorithm based on the change from baseline in urine output and other assessments of fluid balance and nutrition status; the PS adjustment algorithm required reductions in PS if the urine output rose more than 10% above baseline. Patients had study visits at weeks 2 and 4, after which visits were held monthly during TED-C14-004 and SHP633-306. During SHP633-307, patients from SHP633-306 had monthly study visits throughout the 24 total months of treatment and then at 3-month intervals thereafter, and patients from TED-C14-004 had visits at 3-month intervals. The end-of-study assessments for SHP633-306 and TED-C14-004 were combined with the first visit of SHP633-307. SHP633-307 is ending soon with the approval of teduglutide in Japan.
Efficacy endpoints were defined in an analogous manner to previous pivotal studies. These included a clinically meaningful reduction in weekly PS volume of ≥ 20% [17] measured between baseline and both 20 and 24 weeks for TED-C14-004 and SHP633-306, and a continued reduction in weekly PS volume of ≥ 20% from the baseline in core studies at each scheduled visit until the last visit before the interim data cut-off of SHP633-307. Other efficacy endpoints included changes in absolute and percentage weekly PS volumes from the baseline in the core studies at each study visit, the number of days per week of PS, the number of patients who achieved enteral autonomy at the end of treatment or the data cut-off, and the changes in plasma citrulline levels from baseline in the core studies. The primary efficacy data were derived from patient diaries and compared against investigator-prescribed data captured in electronic case report forms.
Efficacy was evaluated between baseline and 24 weeks in TED-C14-004 and SHP633-306 and between baseline and 30 months in […]. Among patients who entered SHP633-307, the total follow-up periods, including the prior studies, were up to 14–57 months of total teduglutide exposure for patients from SHP633-306 and TED-C14-004.
Post hoc analyses of PS volume reductions in patients with Crohn’s disease, with and without a stoma, were performed for TED-C14-004.

[3] = Plasma pharmacokinetics of teduglutide, non-compartmental analysis; conditions: for half-life / AUC(0-inf) / AUC(0-t) / Cmax / Tmax: human, plasma, 0.05 mg/kg; for half-life: read-out: t½ (converted)
Protocol: as §1
Single-dose PK parameters were estimated using a non-compartmental analysis and included the maximum plasma concentration of teduglutide (Cmax), time to Cmax (tmax), terminal half-life elimination (t½), area under the plasma concentration–time curve (AUC) from time 0 to infinity (AUC0-inf), and AUC from time 0 to the last measurable concentration (AUC0-t).

[4] = 12 months, patients from SHP633-306, n = 4, mean ± SD
[5] = 24 weeks, SHP633-306, n = 6, mean ± SD
[6] = 24 weeks, TED-C14-004, n = 9, mean ± SD
[7] = 30 months, TED-C14-004, n = 7, mean ± SD
[8] = 39 months, patients from TED-C14-004 in extension study, n = 5, mean ± SD
[9] = interim data cut-off, patients from TED-C14-004 in extension study, n = 3, mean ± SD
[10] = last visit before interim data cut-off of SHP633-307, patients from SHP633-306, n = 2, mean ± SD
[11] = post hoc, TED-C14-004, patients with Crohn’s disease, 24 weeks, n = 7, mean ± SD
[12] = post hoc, TED-C14-004, patients with Crohn’s disease, 30 months, n = 6, mean ± SD
[13] = post hoc, TED-C14-004, patients with a stoma, 24 weeks, n = 6, mean ± SD
[14] = post hoc, TED-C14-004, patients with a stoma, 30 months, n = 5, mean ± SD
[15] = post hoc, TED-C14-004, patients without a stoma, 24 weeks, n = 3, mean ± SD
[16] = post hoc, TED-C14-004, patients without a stoma, 30 months, n = 2, mean ± SD
[17] = sc, SHP633-306, plasma, 0.05 mg/kg SC once daily, n = 7, mean ± SD
[18] = sc, TED-C14-004, plasma, 0.05 mg/kg SC once daily, n = 8, mean ± SD
[19] = subcutaneous, SHP633-307, patients from TED-C14-004, first extension study visit, mean ± SD

Compound: CC[C@H](C)[C@H](NC(=O)[C@H](Cc1ccccc1)NC(=O)[C@H](CC(=O)O)NC(=O)[C@H](CCCNC(=N)N)NC(=O)[C@H](C)NC(=O)[C@H](C)NC(=O)[C@H](CC(C)C)NC(=O)[C@H](CC(N)=O)NC(=O)[C@H](CC(=O)O)NC(=O)[C@H](CC(C)C)NC(=O)[C@@H](NC(=O)[C@@H](NC(=O)[C@H](CC(N)=O)NC(=O)[C@H](CCSC)NC(=O)[C@H](CCC(=O)O)NC(=O)[C@H](CC(=O)O)NC(=O)[C@H](CO)NC(=O)[C@H](Cc1ccccc1)NC(=O)[C@H](CO)NC(=O)CNC(=O)[C@H](CC(=O)O)NC(=O)CNC(=O)[C@@H](N)Cc1c[nH]cn1)[C@@H](C)O)[C@@H](C)CC)C(=O)N[C@@H](CC(N)=O)C(=O)N[C@@H](Cc1c[nH]c2ccccc12)C(=O)N[C@@H](CC(C)C)C(=O)N[C@H](C(=O)N[C@@H](CCC(N)=O)C(=O)N[C@H](C(=O)N[C@@H](CCCCN)C(=O)N[C@H](C(=O)N[C@H](C(=O)N[C@@H](CC(=O)O)C(=O)O)[C@@H](C)O)[C@@H](C)CC)[C@@H](C)O)[C@@H](C)CC [teduglutide]
- Patients positive for anti-teduglutide antibodies ([1]; 24 weeks, 5 out of 14 patients (n = 4 TED-C14-004; n = 1 SHP633-306)): 35.7%
- Patients with low titers of anti-teduglutide antibodies as well as neutralizing antibodies ([1]; 39 months, patients from TED-C14-004 in SHP633-307, two patients): 40.0%
- Anti-teduglutide antibodies ([1]; 51 or 54 months, n = 7): No anti-teduglutide antibodies were detected
- Patients positive at 24 weeks who also tested positive up to 22 months ([1]; TED-C14-004): Three of the 4 patients
- Association between anti-teduglutide antibodies and a lack of efficacy ([1]; all studies): no association
- Patients positive for antibodies to teduglutide ([1]; month 12, SHP633-307 patients from SHP633-306, 2 out of 4): 50.0%
- Association of anti-teduglutide antibodies with AEs of hypersensitivity or teduglutide-related hypersensitivity reaction ([1]; patients in whom antibodies were detected): no association
- PS volume decrease from baseline [2, 4]: 7.3 ± 6.5 L/week
- PS volume percent change from baseline [2, 4]: −51.6% ± 28.5%
- PS volume decrease from baseline [2, 5]: 3.3 ± 3.6 L/week
- PS volume percent change from baseline [2, 5]: −25.6% ± 25.5%
- Reduction in PS infusion frequency from baseline [2, 5]: 0.5 ± 1.23 days/week
- PS volume decrease from baseline [2, 6]: 4.9 ± 4.8 L/week
- PS volume percent change from baseline [2, 6]: −30.1% ± 25.9%
- Reduction in PS infusion frequency from baseline [2, 6]: 1.0 ± 1.8 days/week
- PS volume decrease from baseline [2, 7]: 8.3 ± 5.9 L/week
- PS volume percent change from baseline [2, 7]: −53.5% ± 33.9%
- Reduction in PS infusion frequency from baseline [2, 7]: 2.1 ± 3.3 days/week
- PS volume decrease from baseline [2, 8]: 7.9 ± 4.5 L/week
- PS volume percent change from baseline [2, 8]: −63.6% ± 33.9%
- Patients with reduction in weekly PS volume of ≥ 20% from baseline at both weeks 20 and 24 ([2]; SHP633-306, 4 of 7 patients): 57.1%
- Patients with reduction in weekly PS volume of ≥ 20% from baseline at both weeks 20 and 24 ([2]; TED-C14-004, 5 of 11 patients): 45.5%
- Patients with reduction in weekly PS volume of ≥ 20% from baseline at both weeks 20 and 24 ([2]; TED-C14-004 and SHP633-306 together, 9 of 18 patients): 50%
- Patients with ≥ 20% reduction in weekly PS volume from baseline ([2]; after 30 months, TED-C14-004, 6 of 7 patients): 85.7%
- Patients whose PS volume decreased by ≥ 20% ([2]; at 24 weeks, TED-C14-004 and SHP633-306): 9/18
- PS volume percent change from baseline ([2]; at data cut-off in SHP633-307, all patients, mean ± SD): −57.08 ± 28.49%
- Patients who achieved enteral autonomy ([2]; by 30 months, TED-C14-004, 2 of 8 patients): 25%
- Patients whose PS volume decreased by ≥ 20% ([2]; by data cut-off in SHP633-307): all 11 patients
- Patients with ≥ 20% reduction in weekly PS volume ([2]; by the end of TED-C14-004, maintained to last visit before data cut-off in the extension study): all patients
- Patients who maintained ≥ 20% reduction in PS volume from baseline at each scheduled visit to the last visit before data cut-off ([2]; extension study SHP633-307, patients from SHP633-306): All patients
- Patients who achieved enteral autonomy ([2]; first 24 weeks, SHP633-306 and TED-C14-004): No patients
- Reduction in PS infusion frequency from baseline ([2]; interim data cut-off of extension study, patients from SHP633-306, mean ± SD): 1.9 ± 2.3 days/week
- PS volume decrease from baseline [2, 9]: 11.5 ± 3.7 L/week
- PS volume percent change from baseline [2, 9]: −63.57% ± 32.0%
- PS volume decrease from baseline [2, 10]: 11.7 ± 8.6 L/week
- PS volume percent change from baseline [2, 10]: −76.4% ± 25.9%
- PS volume decrease from baseline [2, 11]: 5.3 ± 5.4 L/week
- PS volume percent change from baseline [2, 11]: −31.9% ± 28.9%
- PS volume decrease from baseline [2, 12]: 9.3 ± 5.8 L/week
- PS volume percent change from baseline [2, 12]: −59.4% ± 32.9%
- PS volume decrease from baseline [2, 13]: 6.1 ± 5.5 L/week
- PS volume percent change from baseline [2, 13]: −35.3% ± 30.1%
- PS volume decrease from baseline [2, 14]: 10.7 ± 5.4 L/week
- PS volume percent change from baseline [2, 14]: −65.2% ± 33.2%
- PS volume decrease from baseline [2, 15]: 2.7 ± 1.8 L/week
- PS volume percent change from baseline [2, 15]: −19.6% ± 13.1%
- PS volume decrease from baseline [2, 16]: 2.5 ± 0.2 L/week
- PS volume percent change from baseline [2, 16]: −24.3% ± 8.7%
- Maintenance of enteral autonomy ([2]; the 2 patients of TED-C14-004 with enteral autonomy, throughout SHP633-307 until interim data cut-off): remained off PS
- Reduction in PS infusion frequency from baseline ([2]; up to the end of the extension study, patients from TED-C14-004, mean ± SD): 2.2 ± 3.3 days/week
- Pre-dose concentrations after multiple dosing ([3]; SHP633-307, patients from SHP633-306, sparse PK sampling, suggests no accumulation): below the lower limit quantification
- half-life ([3]; sc, SHP633-306, plasma, 0.05 mg/kg SC once daily, n = 6, mean ± SD): 1.1 ± 0.2 h
- AUC(0-inf) [3, 17]: 252 ± 85.4 ng·h/mL
- AUC(0-t) [3, 17]: 240 ± 80.7 ng·h/mL
- Cmax [3, 17]: 49.5 ± 16.4 ng/mL
- Tmax [3, 17]: 3.6 ± 1.6 h
- AUC(0-inf) [3, 18]: 204 ± 51.1 ng·h/mL
- AUC(0-t) [3, 18]: 201 ± 51.6 ng·h/mL
- Cmax [3, 18]: 49.7 ± 19.7 ng/mL
- Tmax [3, 18]: 2.6 ± 1 h
- half-life [3, 18]: 1.2 ± 0.7 h
- AUC(0-inf) [3, 19]: 209 ± 72.7 ng·h/mL
- AUC(0-t) [3, 19]: 200 ± 71.6 ng·h/mL
- Cmax [3, 19]: 54.1 ± 18.7 ng/mL
- Tmax [3, 19]: 2.1 ± 0.4 h
